The test system of assay [1] is JJ5 Breast Cancer cells. Put plainly: Growth inhibition assay against JJ5 breast cancer cells. The assay is classed as cell-based, human. The note with it: 4 days culture. As for the experimental part: Growth medium was added and the cells were cultured at 37° C./5% CO^2 for 4 days. The cells were then recovered by trypsinization and counted in a hemocytometer. Control dishes contained cells cultured in growth medium containing ^111In-DTPA or growth medium alone.

Assay [2] deals with JJ5 Breast Cancer cells. Put plainly: Cytotoxicity (colony-forming) assay against JJ5 breast cancer cells. The note with it: 14 days. The assay is classed as cell-based, human. How it is done: The number of cells seeded was varied from 3×10^4 to 3×10^6cells to obtain approximately 400 viable colonies/dish taking into account the plating efficiency and the expected level of cytotoxicity. Control dishes contained JJ5 breast cancer cells which were incubated with normal saline. Growth medium was added and the cells were cultured at 37° C./5% CO^2 for 14 days. The growth medium was removed and the colonies were stained with methylene blue (1% in a 1:1 mixture of ethanol and water) then washed twice. The number of colonies per dish was counted using a manual colony counter (Manostat Corp). The plating efficiency was calculated by dividing the number of colonies observed by the number of cells seeded in each dish.

For assay [3], the system named is JJ5 Breast Cancer cells. Put plainly: Binding of EGF-^111In-labeled transferrin compound to breast cancer cells (radioligand binding, kinetics, retention). Further details: species or system human. How it is done: For the normal breast cell line HBL-100, 8000 EGFR/cell has been reported. The expression of EGFR in breast cancer cell lines has a reported range of 800 EGFR/cell for MCF-7 cells to 10^6 EGFR/cell for MDA-MB-468 cells. […] Utilizing the Auger electron emitter ^111In was used in the initial experiments to illustrate the utility of the invention using EGF-^111In-labeled transferrin compounds. The EGF-^111In-labeled transferrin (0.25-80 ng) was incubated with 1.5×10^6 cells/dish JJ5 Breast Cancer (prepared from BCBM JJ5) cells in 1 mL of 0.1% human serum albumin in 35 mm multiwell culture dishes at 37° C. for 30 minutes. The cells were transferred to a centrifuge tube and centrifuged. The cell pellet was separated from the supernatant and counted in a g-scintillation counter to determine bound (B) and free (F) radioactivity. Non-specific binding was determined by conducting the assay in 100 nM hEGF. […] Internalized fraction was measured by determining the proportion of radioactivity which could not be displaced from the cell surface by 100 nM hEGF. Cell-associated binding (surface-binding and intracellular accumulation) was expressed as a percentage of medium radioactivity bound per mg of cell study protein.

Here are results for two molecules from US20040219097A1, “Composition useful for the diagnosis, imaging and treatment of tumors” (priority 2003, published 2004).

Consider `[In+3].[O-]c1cccc2cccnc12.[O-]c1cccc2cccnc12.[O-]c1cccc2cccnc12` [^111In-oxine, reference compound], for which the “growth inhibition of the JJ5 cells compared to the medium control” value in the assay on JJ5 Breast Cancer cells [1] (3.5 pCi/cell) is on record as 91%. For the same molecule, the cell killing result in the assay with JJ5 Breast Cancer cells [2] (<6 pCi/cell) is reported as “greater than 99%”.
In the case of “EGF-^111In-labeled transferrin compound: human EGF linked to ^111In-labeled human transferrin”, in the assay with JJ5 Breast Cancer cells [1] (3.4 pCi/cell), the “growth inhibition of the JJ5 cells compared to the medium control” value is recorded as 83%. Further, the “reduction in cell survival for JJ5 cells” value in the assay on JJ5 Breast Cancer cells [2] (8 pCi/cell) is 99%. The “internalization by cancer cells, in words” value in the assay on JJ5 Breast Cancer cells [3] is listed as “rapidly internalized”. For the same molecule, in the assay with JJ5 Breast Cancer cells [3] (JJ5 cells, 37° C.), the “binding by the breast cancer cells (kinetics, in words)” value is “rapidly bound” and the “retained by the breast cancer cells” value is “at least 24 hours”. Also, the “affinity constant for binding to JJ5 cells” value in the assay on JJ5 Breast Cancer cells [3] (JJ5 cells, 37° C., 30 minutes) is 8e+08 L/mol.
